Data as given in the NIST ThermoML archive (doi:10.1021/je050183a).
Numbers after ± are expanded uncertainties.

Experiments:
[1] = xn = mol fraction of the nth substance listed; conditions: 101 kPa, Liquid; for viscosity: Capillary tube (Ostwald / Ubbelohde) method; for speed of sound: Linear variable-path acoustic interferometer; for mass density: Pycnometric method
[2] = refractive index (Na D-line) (dimensionless); xn = mol fraction of the nth substance listed; conditions: 298.15 K, 101 kPa, Liquid, Standard Abbe refractometry

CC1OC(C)OC(C)O1 (stereo not drawn) [2,4,6-trimethyl-1,3,5-trioxane] + CCOC(=O)OCC
[1]
Conditions	mass density, 288.15 K [kg/m3]	mass density, 298.15 K [kg/m3]	speed of sound, 288.15 K [m/s]	speed of sound, 298.15 K [m/s]	viscosity, 288.15 K [mPa·s]	viscosity, 298.15 K [mPa·s]
x1 = 0.0215	980.99 ± 1.3	969.57 ± 1.3	1224 ± 2.7	1173.8 ± 2.7	0.877 ± 0.012	0.756 ± 0.01
x1 = 0.0425	981.54 ± 1.3	969.99 ± 1.3	1222.6 ± 2.7	1174.2 ± 2.7	0.885 ± 0.012	0.763 ± 0.01
x1 = 0.0615	982.03 ± 1.3	970.36 ± 1.3	1221.4 ± 2.7	1174.5 ± 2.7	0.892 ± 0.012	0.768 ± 0.01
x1 = 0.0816	982.54 ± 1.3	970.76 ± 1.3	1220.3 ± 2.7	1174.8 ± 2.6	0.899 ± 0.012	0.774 ± 0.01
x1 = 0.1036	983.08 ± 1.3	971.19 ± 1.3	1219.1 ± 2.7	1175 ± 2.6	0.906 ± 0.012	0.779 ± 0.01
x1 = 0.1911	985.12 ± 1.4	972.92 ± 1.4	1215.7 ± 2.7	1175.6 ± 2.6	0.931 ± 0.012	0.798 ± 0.011
x1 = 0.317	987.74 ± 1.4	975.41 ± 1.4	1213.4 ± 2.7	1175.3 ± 2.6	0.959 ± 0.013	0.819 ± 0.011
x1 = 0.4272	989.8 ± 1.4	977.57 ± 1.4	1213.2 ± 2.7	1174.4 ± 2.6	0.985 ± 0.013	0.836 ± 0.011
x1 = 0.5162	991.35 ± 1.4	979.28 ± 1.4	1213.8 ± 2.7	1173.5 ± 2.6	1.011 ± 0.013	0.854 ± 0.011
x1 = 0.608	992.87 ± 1.4	981 ± 1.3	1214.8 ± 2.7	1172.6 ± 2.6	1.047 ± 0.014	0.878 ± 0.012
x1 = 0.7032	994.41 ± 1.3	982.74 ± 1.3	1215.7 ± 2.7	1171.9 ± 2.6	1.098 ± 0.014	0.913 ± 0.012
x1 = 0.7984	995.94 ± 1.3	984.41 ± 1.3	1216.2 ± 2.7	1171.5 ± 2.6	1.167 ± 0.015	0.962 ± 0.013
x1 = 0.8957	997.54 ± 1.4	986.04 ± 1.3	1216.7 ± 2.7	1171.8 ± 2.6	1.26 ± 0.017	1.028 ± 0.014
x1 = 1	999.69 ± 1.3	988.35 ± 1.3	1217.7 ± 2.7	1174.5 ± 2.6	1.374 ± 0.018	1.107 ± 0.015

[2]
Conditions	refractive index
x1 = 0.0215	1.3835 ± 0.0008
x1 = 0.0425	1.384 ± 0.0008
x1 = 0.0615	1.3844 ± 0.0008
x1 = 0.0816	1.3848 ± 0.0008
x1 = 0.1036	1.3853 ± 0.0008
x1 = 0.1911	1.3873 ± 0.0008
x1 = 0.317	1.3901 ± 0.0008
x1 = 0.4272	1.3926 ± 0.0008
x1 = 0.5162	1.3945 ± 0.0008
x1 = 0.608	1.3963 ± 0.0008
x1 = 0.7032	1.3982 ± 0.0008
x1 = 0.7984	1.3999 ± 0.0008
x1 = 0.8957	1.4015 ± 0.0008
x1 = 1	1.4029 ± 0.0008
